In this experiment the target is wild-type human cardiac sodium channel, hNav1.5 (late sodium current) in HEK293 cells (Homo sapiens, UniProt Q14524). Nature of the experiment: Late INa screening assay (automated whole-cell patch clamp, PatchXpress). Format: cell-based. The settings on record: late INa generated with 10 μM Tefluthrin (or 50 nM ATX II), HEK293 hNav1.5; for inhibition at 1 µM: HEK293, compound at 1 μM, read-out: Late INa 1 μM (percent block of late INa). As for the experimental part: The late sodium current (Late INa) and peak sodium current (Peak INa) assays are performed on an automated electrophysiology platform, PatchXpress 7000A (MDS Analytical Technologies, Sunnyvale, Calif.), which uses the whole cell patch clamp technique to measure currents through the cell membrane of up to 16 cells at a time. The assay uses an HEK293 (human embryonic kidney) cell line heterologously expressing the wild-type human cardiac sodium channel, hNav1.5, purchased from Millipore (Billerica, Mass.). No beta subunits were coexpressed with the Na channel alpha subunit. Cells are maintained with standard tissue culture procedures and stable channel expression is maintained with 400 μg/ml Geneticin in the culture medium. Cells isolated for use on PatchXpress are incubated for 5 minutes in Versene 1× and then for 2 minutes in 0.0125% Trypsin-EDTA (both at 37° C.) to ensure that 80-90% of the cells are single and not part of a cell cluster. Experiments are carried out at 24-27° C.
For both the Late INa and Peak INa assays, series resistance compensation is set to 50% and whole-cell compensation is performed automatically. Currents are low-pass filtered at 10 kHz and digitized at 31.25 kHz. Currents through open sodium channels are automatically recorded and stored in the DataXpress2 database (MDS Analytical Technologies, Sunnyvale, Calif.). Analysis is performed using DataXpress2 analysis software and data are compiled in Excel.
Compound stocks are routinely made in glass vials to 10 mM in dimethyl sulfoxide (DMSO). In some cases, when compounds are not soluble in DMSO, they are made in 100% ethanol. Stocks are sonicated as necessary. The extracellular solution for screening Late INa is composed of: 140 mM NaCl, 4 mM KCl, 1.8 mM CaCl2, 0.75 mM MgCl2, and 5 mM HEPES with pH adjusted to 7.4 using NaOH. The extracellular solution for screening Peak INa is composed of: 20 mM NaCl, 120 mM N-methyl-D glucamine, 4 mM KCl, 1.8 mM CaCl2, 0.75 mM MgCl2, and 5 mM HEPES with pH adjusted to 7.4 using HCl. The intracellular solution used to perfuse the inside of the cells for both the Late INa and Peak INa assays contains: 120 mM CsF, 20 mM CsCl, 5 mM EGTA, 5 mM HEPES and pH adjusted to 7.4 with CsOH. Compounds are diluted in extracellular solution to 10 μM in glass vials and then transferred to glass well plates before robotic addition to the cells. The 0Na extracellular solution used at the end of each experiment for the Late INa and Peak INa assays to measure baseline current contains: 140 mM N-methyl-D-glucamine; 4 mM KCl; 1.8 mM CaCl2; 0.75 mM MgCl2; 5 mM HEPES and pH was adjusted to 7.4 with HCl.
For the Late INa assay, sodium channels are activated every 10 seconds (0.1 Hz) by depolarizing the cell membrane to −20 mV for 250 milliseconds (ms) from a holding potential of −120 mV. In response to a −20 mV voltage step, typical Nav1.5 sodium currents activate rapidly to a peak negative current and then inactivate nearly completely within 3-4 ms.
All compounds are tested to determine their activity in blocking the late sodium current. Late INa current is generated by adding 10 μM Tefluthrin (pyrethroid) to the extracellular solution while recording Na currents. For some experiments, 50 nM ATX II (sea anemone toxin), another late INa activator, was used to generate the late component. Both activators generate late components that are large enough that block of the late component by compounds can be measured easily. For the purposes of the screening, late INa is defined as the mean current between 225 ms and 250 ms after stepping to −20 mV to activate Na channels. After establishing the whole cell recording configuration, late INa activators are added to each well 4 times over a 16-17 minute period so that the late component of the Na current reaches a stable value. Compounds are then added (typically at 10 μM), in the presence of late INa activator, with 3 additions over the course of 7 or 8 minutes. […]
For orientation: The patch-clamp technique gives a direct electrical read-out from membranes.

wild-type human cardiac sodium channel, hNav1.5 (late sodium current) in HEK293 cells, sequence (Q14524 whole entry): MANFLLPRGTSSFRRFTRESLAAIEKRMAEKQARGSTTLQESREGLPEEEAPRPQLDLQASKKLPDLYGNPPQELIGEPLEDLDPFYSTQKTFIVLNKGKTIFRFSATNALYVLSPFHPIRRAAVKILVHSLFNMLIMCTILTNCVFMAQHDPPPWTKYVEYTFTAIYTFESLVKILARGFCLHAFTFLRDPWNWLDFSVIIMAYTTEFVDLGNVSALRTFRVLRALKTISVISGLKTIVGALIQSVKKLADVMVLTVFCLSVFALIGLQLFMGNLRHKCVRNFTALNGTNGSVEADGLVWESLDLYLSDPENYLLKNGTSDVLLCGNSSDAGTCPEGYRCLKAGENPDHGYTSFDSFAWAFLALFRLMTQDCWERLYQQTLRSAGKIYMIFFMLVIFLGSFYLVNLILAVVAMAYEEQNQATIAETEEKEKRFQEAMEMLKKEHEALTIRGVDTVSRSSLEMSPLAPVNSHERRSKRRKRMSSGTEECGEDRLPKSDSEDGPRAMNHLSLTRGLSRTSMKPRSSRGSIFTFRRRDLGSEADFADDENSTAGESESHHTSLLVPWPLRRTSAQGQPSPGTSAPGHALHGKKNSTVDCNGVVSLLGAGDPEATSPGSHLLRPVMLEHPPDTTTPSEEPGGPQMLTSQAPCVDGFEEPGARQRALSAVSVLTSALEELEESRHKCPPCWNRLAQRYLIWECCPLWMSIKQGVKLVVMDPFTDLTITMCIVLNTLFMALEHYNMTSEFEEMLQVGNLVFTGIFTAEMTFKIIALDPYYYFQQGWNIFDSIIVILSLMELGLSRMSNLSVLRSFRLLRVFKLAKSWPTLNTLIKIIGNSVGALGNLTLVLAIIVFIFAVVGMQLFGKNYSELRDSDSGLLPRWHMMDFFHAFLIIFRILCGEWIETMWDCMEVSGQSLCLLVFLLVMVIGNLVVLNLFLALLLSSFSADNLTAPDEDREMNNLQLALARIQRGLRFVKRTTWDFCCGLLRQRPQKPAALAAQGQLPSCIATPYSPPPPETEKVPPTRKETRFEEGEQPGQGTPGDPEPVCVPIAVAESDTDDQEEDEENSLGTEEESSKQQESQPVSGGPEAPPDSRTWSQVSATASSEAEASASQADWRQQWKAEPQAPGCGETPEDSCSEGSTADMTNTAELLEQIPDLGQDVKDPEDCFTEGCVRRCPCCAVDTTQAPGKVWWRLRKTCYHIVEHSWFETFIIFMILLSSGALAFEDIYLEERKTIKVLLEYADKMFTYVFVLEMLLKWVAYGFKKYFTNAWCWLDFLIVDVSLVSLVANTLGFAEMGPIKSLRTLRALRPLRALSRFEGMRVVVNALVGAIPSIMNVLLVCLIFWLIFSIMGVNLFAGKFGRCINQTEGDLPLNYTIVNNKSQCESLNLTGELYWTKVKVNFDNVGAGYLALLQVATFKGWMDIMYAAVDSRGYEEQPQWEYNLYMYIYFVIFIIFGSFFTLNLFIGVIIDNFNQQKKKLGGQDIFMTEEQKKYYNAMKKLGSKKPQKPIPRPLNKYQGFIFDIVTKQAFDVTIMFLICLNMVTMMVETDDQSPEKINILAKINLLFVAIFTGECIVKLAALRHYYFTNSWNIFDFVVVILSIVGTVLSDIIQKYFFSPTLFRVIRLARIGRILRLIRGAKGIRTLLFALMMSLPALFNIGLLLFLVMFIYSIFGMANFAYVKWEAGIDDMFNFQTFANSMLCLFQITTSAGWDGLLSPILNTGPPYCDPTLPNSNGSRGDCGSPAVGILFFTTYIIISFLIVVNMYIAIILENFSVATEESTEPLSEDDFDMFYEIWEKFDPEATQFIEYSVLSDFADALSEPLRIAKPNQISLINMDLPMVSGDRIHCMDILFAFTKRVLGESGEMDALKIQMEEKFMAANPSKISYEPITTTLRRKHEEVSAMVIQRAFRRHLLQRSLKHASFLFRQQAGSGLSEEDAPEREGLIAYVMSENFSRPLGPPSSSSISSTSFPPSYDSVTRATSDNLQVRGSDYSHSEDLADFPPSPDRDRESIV

Regarding `O=c1n(Cc2cccc(C(F)(F)F)n2)nc2ccc(-c3ccc(OC(F)(F)F)cc3)cn12` [compound 62, 6-(4-(trifluoromethoxy)phenyl)-2-((6-(trifluoromethyl)pyridin-2-yl)methyl)-[1,2,4]triazolo[4,3-a]pyridin-3(2H)-one], the inhibition at 1 µM stood at 21.6%.
Still for that read-out and setting: for `COc1cccc(CCn2nc3ccc(-c4ccc(OC(F)(F)F)cc4)cn3c2=O)n1` [compound 103, 2-(2-(6-methoxypyridin-2-yl)ethyl)-6-(4-(trifluoromethoxy)phenyl)-[1,2,4]triazolo[4,3-a]pyridin-3(2H)-one] the value was 49.7%.
In the case of `[2H]C([2H])([2H])c1noc(Cn2nc3ccc(-c4ccc(OC(F)(F)F)cc4)cn3c2=O)n1` [compound 169, 2-((3-trideuteromethyl-1,2,4-oxadiazol-5-yl)methyl)-6-(4-(trifluoromethoxy)phenyl)-[1,2,4]triazolo[4,3-a]pyridin-3(2H)-one], the inhibition at 1 µM came out at 24.1%.
Consider `O=c1n(CCc2cccnc2)nc2ccc(-c3ccc(OC(F)(F)F)cc3)cn12` [compound 73, 2-(2-(pyridin-3-yl)ethyl)-6-(4-(trifluoromethoxy)phenyl)-[1,2,4]triazolo[4,3-a]pyridin-3(2H)-one], for which the inhibition at 1 µM is 10.4%.
The same measure, in the same setting: for `O=c1n(CCOc2cccc(C(F)(F)F)n2)nc2ccc(-c3ccc(OC(F)(F)F)cc3)cn12` [compound 65, 6-(4-(trifluoromethoxy)phenyl)-2-(2-(6-(trifluoromethyl)pyridin-2-yloxy)ethyl)-[1,2,4]triazolo[4,3-a]pyridin-3(2H)-one] the value was 21.1%; for `O=c1n(Cc2noc(CCl)n2)nc2ccc(-c3ccc(OC(F)(F)F)cc3)cn12` [compound 157, 2-((5-(chloromethyl)-1,2,4-oxadiazol-3-yl)methyl)-6-(4-(trifluoromethoxy)phenyl)-[1,2,4]triazolo[4,3-a]pyridin-3(2H)-one], 22.7%.
Same read-out and setting: the same measure for `Cc1nnc(Cn2nc3ccc(-c4ccc(OC(F)(F)F)cc4)cn3c2=O)o1` [compound 18, 2-((5-methyl-1,3,4-oxadiazol-2-yl)methyl)-6-(4-(trifluoromethoxy)phenyl)-[1,2,4]triazolo[4,3-a]pyridin-3(2H)-one]: 11.5%; for `O=c1n(Cc2noc(COc3ccccn3)n2)nc2ccc(-c3ccc(OC(F)(F)F)cc3)cn12` [compound 175, 2-((5-((pyridin-2-yloxy)methyl)-1,2,4-oxadiazol-3-yl)methyl)-6-(4-(trifluoromethoxy)phenyl)-[1,2,4]triazolo[4,3-a]pyridin-3(2H)-one]: 28.9%.
For `CN(C)c1nc(OCCn2nc3ccc(-c4ccc(OC(F)(F)F)cc4)cn3c2=O)ncc1F` [compound 126, 2-(2-(4-(dimethylamino)-5-fluoropyrimidin-2-yloxy)ethyl)-6-(4-(trifluoromethoxy)phenyl)-[1,2,4]triazolo[4,3-a]pyridin-3(2H)-one], the inhibition at 1 µM came out at 32.6%.
On the same count and under the same terms, for `COc1ccccc1OCC(O)Cn1nc2ccc(-c3ccc(OC(F)(F)F)cc3)cn2c1=O` (stereo not drawn) [compound 4, 2-(2-hydroxy-3-(2-methoxyphenoxy)propyl)-6-(4-(trifluoromethoxy)phenyl)-[1,2,4]triazolo[4,3-a]pyridin-3(2H)-one] the value was 20.8%; for `O=c1n(Cc2nc3ccccc3s2)nc2ccc(-c3ccc(OC(F)(F)F)cc3)cn12` [compound 20, 2-(benzo[d]thiazol-2-ylmethyl)-6-(4-(trifluoromethoxy)phenyl)-[1,2,4]triazolo[4,3-a]pyridin-3(2H)-one], 17.4%.
Still for that read-out and setting: the same measure for `O=c1n(CCOc2ncccn2)nc2ccc(-c3ccc(Oc4ccc(F)cc4)cc3)cn12` [compound 122, 6-(4-(4-fluorophenoxy)phenyl)-2-(2-(pyrimidin-2-yloxy)ethyl)-[1,2,4]triazolo[4,3-a]pyridin-3(2H)-one]: 58.5%; for `Cc1noc(Cn2nc3ccc(-c4ccc(Cl)c(F)c4)cn3c2=O)n1` [compound 161, 6-(4-chloro-3-fluorophenyl)-2-((3-methyl-1,2,4-oxadiazol-5-yl)methyl)-[1,2,4]triazolo[4,3-a]pyridin-3(2H)-one]: 13.9%; for `O=c1n(CC(F)(F)F)nc2ccc(-c3ccc(OC(F)(F)F)cc3)cn12` [compound 189, 2-(2,2,2-trifluoroethyl)-6-(4-(trifluoromethoxy)phenyl)-[1,2,4]triazolo[4,3-a]pyridin-3(2H)-one]: 15.3%.
Same read-out and setting: for `CC(C)n1nc2ccc(-c3ccc(OC(F)(F)F)cc3)cn2c1=O` [compound 190, 2-isopropyl-6-(4-(trifluoromethoxy)phenyl)-[1,2,4]triazolo[4,3-a]pyridin-3(2H)-one] the value was 17.6%.
On to `Cc1cccnc1-c1cc(Cn2nc3ccc(-c4ccc(OC(F)(F)F)cc4)cn3c2=O)no1` [compound 145, 2-((5-(3-methylpyridin-2-yl)isoxazol-3-yl)methyl)-6-(4-(trifluoromethoxy)phenyl)-[1,2,4]triazolo[4,3-a]pyridin-3(2H)-one], for which the inhibition at 1 µM worked out at 37.7%.
Same read-out and setting: the same measure for `C[Si](C)(C)c1ccc(-c2ccc3nn(CCOc4ncccn4)c(=O)n3c2)cc1` [compound 123, 2-(2-(pyrimidin-2-yloxy)ethyl)-6-(4-(trimethylsilyl)phenyl)-[1,2,4]triazolo[4,3-a]pyridin-3(2H)-one]: 38%.
Still for that read-out and setting: for `O=c1n(Cc2noc(C3CC3)n2)nc2ccc(-c3ccc(OC(F)(F)F)cc3)cn12` [compound 142, 2-((5-cyclopropyl-1,2,4-oxadiazol-3-yl)methyl)-6-(4-(trifluoromethoxy)phenyl)-[1,2,4]triazolo[4,3-a]pyridin-3(2H)-one] the value was 20%.
With `O=c1n(Cc2noc(CO)n2)nc2ccc(-c3ccc(Oc4ccc(F)cc4)cc3)cn12` [compound 146, 6-(4-(4-fluorophenoxy)phenyl)-2-((5-(hydroxymethyl)-1,2,4-oxadiazol-3-yl)methyl)-[1,2,4]triazolo[4,3-a]pyridin-3(2H)-one], the inhibition at 1 µM came out at 32.6%.
In the case of `N#Cc1ccnc(OCCn2nc3ccc(-c4ccc(OC(F)(F)F)cc4)cn3c2=O)n1` [compound 129], the “Late INa 1 μM (percent block of late INa)” value (compound at 1 μM) amounted to 16.1133%.
Consider `Cc1coc(Cn2nc3ccc(-c4ccc(C(F)(F)F)cc4)cn3c2=O)n1` [compound 192, 2-((4-methyloxazol-2-yl)methyl)-6-(4-(trifluoromethyl)phenyl)-[1,2,4]triazolo[4,3-a]pyridin-3(2H)-one], for which the inhibition at 1 µM stood at 34.4%.
With `Cc1ccc(OCCn2nc3ccc(-c4ccc(OC(F)(F)F)cc4)cn3c2=O)cc1` [compound 75, 2-(2-(p-tolyloxy)ethyl)-6-(4-(trifluoromethoxy)phenyl)-[1,2,4]triazolo[4,3-a]pyridin-3(2H)-one], the inhibition at 1 µM is 25.7%.
Same read-out and setting: for `CC(C)Oc1ccccc1OCC(O)Cn1nc2ccc(-c3ccc(OC(F)(F)F)cc3)cn2c1=O` (stereo not drawn) [compound 108, 2-(2-hydroxy-3-(2-isopropoxyphenoxy)propyl)-6-(4-(trifluoromethoxy)phenyl)-[1,2,4]triazolo[4,3-a]pyridin-3(2H)-one] the value was 41.5%; for `O=c1n(CCOc2nccc3ccccc23)nc2ccc(-c3ccc(OC(F)(F)F)cc3)cn12` [compound 141, 2-(2-(isoquinolin-1-yloxy)ethyl)-6-(4-(trifluoromethoxy)phenyl)-[1,2,4]triazolo[4,3-a]pyridin-3(2H)-one], 29.9%.

For the origin of these results see patent publication US9079901B2, “Fused heterocyclic compounds as ion channel modulators” (Gilead Sciences, Inc., priority 2010, dated 2015).
